The test concerns M. tuberculosis. In words: microbe, parasite or virus in culture. It counts as cell-based, Mycobacterium tuberculosis. The conditions noted are these: resistance profile INH; for MIC90: Mycobacterium tuberculosis.
Setting [1] is: read-out: In vitro MIC90, strain BC-MDR2, RIF, PZA, SM, RBT.
[2] abbreviates: read-out: In vitro MIC90, strain BC-MDR3, RIF, RBT.
The mark [3] stands for this setting: read-out: In vitro MIC90, strain BC-MDR4, RIF, EMB, PZA, RBT.
Setting [4] is: read-out: In vitro MIC90, strain BC-MDR5, RIF, PZA, SM, PAS, RBT.
Setting [5] is: read-out: In vitro MIC90, strain CI5058, RIF.
[6] abbreviates: read-out: In vitro MIC90, strain CI5072, RIF, SM.
Setting [7] is: read-out: In vitro MIC90, strain CI5297.
[8] abbreviates: read-out: In vitro MIC90, strain CI5305.
[9] abbreviates: read-out: In vitro MIC90, strain CI5324, RIF.
Where [10] appears, read: read-out: In vitro MIC90, strain CI5358, EMB, ETH.
[11] abbreviates: read-out: In vitro MIC90, strain CI5400, RIF.
Setting [12] is: read-out: In vitro MIC90, strain CI5447.
Setting [13] is: read-out: In vitro MIC90, strain CI5459, EMB, ETH.
Where [14] appears, read: read-out: In vitro MIC90, strain CI12081, RIF, SM, EMB, ETH.
Where [15] appears, read: read-out: In vitro MIC90, strain KZN5, RIF, SM, EMB, ETH, KM, PZA.
[16] abbreviates: read-out: In vitro MIC90, strain KZN6, RIF, SM, EMB, ETH, KM, PZA.
Where [17] appears, read: read-out: In vitro MIC90, strain KZN11, RIF, SM, EMB.
Where [18] appears, read: read-out: In vitro MIC90, strain KZN12, RIF, SM, EMB, ETH, KM, PZA.
Where [19] appears, read: read-out: In vitro MIC90, strain KZN14, RIF, SM, EMB, ETH, KM, PZA.
Setting [20] is: read-out: In vitro MIC90, strain KZN15, RIF, SM, EMB, ETH, KM, PZA.
[21] abbreviates: read-out: In vitro MIC90, strain KZN16, RIF, SM, EMB, ETH, KM, PZA.
The mark [22] stands for this setting: read-out: In vitro MIC90, strain V2475, RIF.

Values after ≈ are worked out from the molar mass of the structure shown. Where two headings read alike, the source gives them in different places.

`CC[C@H](C)[C@H]1O[C@]2(CC[C@@H]1C)C[C@@H]1C[C@@H](C/C=C(\C)[C@@H](O[C@H]3C[C@H](OC)[C@@H](O[C@H]4C[C@H](OC)[C@@H](O)[C@H](C)O4)[C@H](C)O3)[C@@H](C)/C=C/C=C3\CO[C@@H]4[C@H](O)C(C)=C[C@@H](C(=O)O1)[C@]34O)O2` [Ivermectin]: the “In vitro MIC90” value was greater than 128 µg/mL (strain BC-MDR2, RIF, PZA, SM, RBT); 1 to 2 µg/mL (strain BC-MDR3, RIF, RBT); 4 to 16 µg/mL (strain BC-MDR4, RIF, EMB, PZA, RBT); 4 to 16 µg/mL (strain BC-MDR5, RIF, PZA, SM, PAS, RBT); 6 µg/mL (strain CI5058, RIF); greater than 24 µg/mL (strain CI5072, RIF, SM). Further, the “In vitro MIC90” value reads like this: (strain CI5297) 6 µg/mL; (strain CI5305) 3 µg/mL; (strain CI5324, RIF) 6 µg/mL; (strain CI5358, EMB, ETH) 3 µg/mL; (strain CI5400, RIF) 3 µg/mL; (strain CI5447) 1.5 µg/mL. Besides, the “In vitro MIC90” value (strain CI5459, EMB, ETH) is 3 µg/mL; the “In vitro MIC90” value (strain CI12081, RIF, SM, EMB, ETH) is greater than 24 µg/mL; the “In vitro MIC90” value (strain H37Rv mc^24977) is 6 µg/mL; the “In vitro MIC90” value (strain H37Rv mc^25857, RIF) is 3 µg/mL; the “In vitro MIC90” value (strain H37Rv mc^25858, RIF) came to 3 µg/mL; the “In vitro MIC90” value (strain KZN5, RIF, SM, EMB, ETH, KM, PZA) was 6 µg/mL. Further, the “In vitro MIC90” value by setting is: (strain KZN6, RIF, SM, EMB, ETH, KM, PZA) 6 µg/mL; (strain KZN11, RIF, SM, EMB) 3 µg/mL; (strain KZN12, RIF, SM, EMB, ETH, KM, PZA) 3 µg/mL; (strain KZN14, RIF, SM, EMB, ETH, KM, PZA) 6 to 12 µg/mL; (strain KZN15, RIF, SM, EMB, ETH, KM, PZA) 6 µg/mL; (strain KZN16, RIF, SM, EMB, ETH, KM, PZA) 3 µg/mL. The “In vitro MIC90” value (strain V2475, RIF) worked out at 1.5 µg/mL.

With `CO/N=C1\C[C@]2(C[C@@H]3C[C@@H](C/C=C(\C)C[C@@H](C)/C=C/C=C4\CO[C@@H]5[C@H](O)C(C)=C[C@@H](C(=O)O3)[C@]45O)O2)O[C@H](/C(C)=C/C(C)C)[C@H]1C` [Moxidectin], the MIC90 runs as follows: under setting [1], 2 to 4 µg/mL (≈ 3.13 to 6.25 µM); under setting [2], 1 to 2 µg/mL (≈ 1.56 to 3.13 µM); under setting [3], 2 to 4 µg/mL (≈ 3.13 to 6.25 µM); under setting [4], 2 to 4 µg/mL (≈ 3.13 to 6.25 µM); under setting [5], 6 µg/mL (≈ 9.38 µM); under setting [6], 3 µg/mL (≈ 4.69 µM). Besides, the MIC90 was 6 µg/mL (≈ 9.38 µM) under setting [7]; 1.5 µg/mL (≈ 2.34 µM) under setting [8]; 3 µg/mL (≈ 4.69 µM) under setting [9]; 3 µg/mL (≈ 4.69 µM) under setting [10]; 3 µg/mL (≈ 4.69 µM) under setting [11]; 0.8 to 1.5 µg/mL (≈ 1.25 to 2.34 µM) under setting [12]. Moreover, the MIC90 is, setting by setting: under setting [13], 1.5 µg/mL (≈ 2.34 µM); under setting [14], 3 µg/mL (≈ 4.69 µM); under setting [15], 3 µg/mL (≈ 4.69 µM); under setting [16], 3 µg/mL (≈ 4.69 µM); under setting [17], 3 µg/mL (≈ 4.69 µM); under setting [18], 1.5 µg/mL (≈ 2.34 µM). Moreover, the MIC90 is 3 to 6 µg/mL (≈ 4.69 to 9.38 µM) under setting [19], 3 µg/mL (≈ 4.69 µM) under setting [20], 1.5 µg/mL (≈ 2.34 µM) under setting [21] and 3 µg/mL (≈ 4.69 µM) under setting [22].

Regarding `CO[C@H]1C[C@H](O[C@@H]2/C(C)=C/C[C@@H]3C[C@@H](C[C@]4(CC[C@H](C)[C@@H](C5CCCCC5)O4)O3)OC(=O)[C@@H]3C=C(C)/C(=N/O)[C@H]4OC/C(=C\C=C\[C@@H]2C)[C@]43O)O[C@@H](C)[C@@H]1O` [Selamectin], the MIC90 is, setting by setting: under setting [1], 2 µg/mL (≈ 2.6 µM); under setting [2], 0.5 to 1 µg/mL (≈ 0.649 to 1.3 µM); under setting [3], 2 µg/mL (≈ 2.6 µM); under setting [4], 2 µg/mL (≈ 2.6 µM); under setting [5], 6 µg/mL (≈ 7.79 µM); under setting [6], 3 to 6 µg/mL (≈ 3.9 to 7.79 µM). For the same molecule, the MIC90 is 3 µg/mL (≈ 3.9 µM) under setting [7]; 1.5 µg/mL (≈ 1.95 µM) under setting [8]; 3 µg/mL (≈ 3.9 µM) under setting [9]; 1.5 µg/mL (≈ 1.95 µM) under setting [10]; 3 µg/mL (≈ 3.9 µM) under setting [11]; 1.5 µg/mL (≈ 1.95 µM) under setting [12]. Further, the MIC90 was 1.5 to 3 µg/mL (≈ 1.95 to 3.9 µM) under setting [13]; 3 µg/mL (≈ 3.9 µM) under setting [14]; 3 µg/mL (≈ 3.9 µM) under setting [15]; 6 µg/mL (≈ 7.79 µM) under setting [16]; 3 µg/mL (≈ 3.9 µM) under setting [17]; 3 µg/mL (≈ 3.9 µM) under setting [18]. Besides, the MIC90 runs as follows: under setting [19], 6 µg/mL (≈ 7.79 µM); under setting [20], 3 µg/mL (≈ 3.9 µM); under setting [21], 1.5 µg/mL (≈ 1.95 µM); under setting [22], 1.5 µg/mL (≈ 1.95 µM).

(Values after patent publication US9308215B2, “Avermectins and milbemycins as anti-mycobacterial agents” (priority 2013, dated 2016).)
